The source of these data is patent publication US20240002385A1, “PIPERIDINYL-METHYL-PURINE AMINE D-TARTARIC ACID SALTS, CRYSTALLINE FORMS, AND THEIR USE IN TREATING MEDICAL DISEASES AND CONDITIONS” (K36 Therapeutics, Inc., priority 2022, published 2024).

≈ marks a conversion by molar mass, not a printed value.

What all share (type): physicochemical
Series [1] is described as follows: Hygroscopicity by dynamic vapor sorption. To be noted: transitioned from 5% to 95% relative humidity. Here is the method: The title compound was analyzed for hygroscopicity by dynamic vapor sorption. Dynamic vapor sorption was performed using a Q5000SA. The sample (5-15 mg) was loaded into a metallic quartz sample pan, suspended from a microbalance, and exposed to a humidified stream of nitrogen gas. Weight changes were relative to a matching empty reference pan opposite the sample, suspended from the microbalance. The sample was held for a minimum of 10 min at each humidity level and only progressed to the next humidity level if there was <0.002% change in weight between measurements (interval: 5 s) or 60 min had elapsed. The following program was used: • 1. Equilibration at 50% RH • 2. 50% to 5% (50%, 35%, 20%, and 5%) • 3. 5% to 95%(5%, 20%, 35%, 50%, 65%, 80%, and 95%) • 4. 95% to 5% (95%, 80%, 65%, 50%, 35%, 20%, and 5%) • 5. 5% to 50%(5%, 20%, 35%, and 50%).

Series [2] can be described thus: Water content by Karl Fischer titration. Here is the method:
The title compound was analyzed for water content by Karl Fischer (KF) titration, and determined to have a water content of 1.22 wt %. Karl Fischer (KF) titration for water determination was performed using a Mettler Toledo C20S Coulometric KF Titrator equipped with a current generator cell with a diaphragm, and a double-platinum-pin electrode. The range of detection of the instrument is 1 ppm to 5% water. Aquastar™ CombiCoulomat fritless reagent was used in both the anode and cathode compartments. Samples of approximately 0.03-0.10 g were dissolved in the anode compartment and titrated until the solution potential dropped below 100 mV. Hydranal 1 wt % water standard was used for validation prior to sample analysis.

Series [3] in a line: Water solubility of crystalline form at pH 6.8 and 37° C. The following applies: aqueous buffer, pH 6.8, 37° C.
Series [4] can be described thus: Accelerated stability study (six days, 75% RH, 40° C.). Here is the method:
An accelerated stability study was conducted on the crystalline form of (S)-1-((R)-3-amino-1-(4-((6-amino-9H-purin-9-yl)methyl)-6-(2,5-difluoro-4-methoxyphenyl) pyridin-3-yl)piperidin-3-yl)-2,2-difluoroethan-1-ol D-tartaric acid salt, prepared as described in Example 1. Approximately 12 mg of solid was placed into a 4-mL vial, and then the vial was covered with a Kimwipe. The vial was stored for six days inside a stability chamber producing a relative humidity of 75% at 40° C.

The nature of series [5]: One year stability study (25° C.±2° C., 60%±5% RH). The following applies: 25° C./60% RH. Here is the method: A one-year stability study was conducted on the crystalline form of (S)-1-((R)-3-amino-1-(4-((6-amino-9H-purin-9-yl)methyl)-6-(2,5-difluoro-4-methoxyphenyl) pyridin-3-yl)piperidin-3-yl)-2,2-difluoroethan-1-ol D-tartaric acid salt having an XRDP pattern as set forth in Example 4. In particular, an aliquot of the crystalline (S)-1-((R)-3-amino-1-(4-((6-amino-9H-purin-9-yl)methyl)-6-(2,5-difluoro-4-methoxyphenyl) pyridin-3-yl)piperidin-3-yl)-2,2-difluoroethan-1-ol D-tartaric acid salt was stored for 1 year at a temperature of 25° C.±2° C. where the relative humidity was 60%±5%. A sample of the crystalline (S)-1-((R)-3-amino-1-(4-((6-amino-9H-purin-9-yl)methyl)-6-(2,5-difluoro-4-methoxyphenyl) pyridin-3-yl)piperidin-3-yl)-2,2-difluoroethan-1-ol D-tartaric acid salt was analyzed at the following time points in the experiment: 0 days (i.e., at the start of the experiment), 1 month, 3 months, 6 months, 9 months, and 12 months. The following parameters were evaluated at each time point: physical appearance, water content by coulometric Karl Fischer (CKF) determination, purity by ultra-performance liquid chromatography (UPLC), and total amount of related substances. XRPD analysis was performed on a compound sample at time points 0 days and at 12 months.

Series [6] is described as follows: Six-month stability study at elevated temperature and relative humidity (40° C.±2° C., 75%±5% RH). To be noted: 40° C./75% RH. Here is the method:
A six-month stability study was conducted on the crystalline form of (S)-1-((R)-3-amino-1-(4-((6-amino-9H-purin-9-yl)methyl)-6-(2,5-difluoro-4-methoxyphenyl) pyridin-3-yl)piperidin-3-yl)-2,2-difluoroethan-1-ol D-tartaric acid salt having an XRDP pattern as set forth in Example 4. In particular, an aliquot of the crystalline (S)-1-((R)-3-amino-1-(4-((6-amino-9H-purin-9-yl)methyl)-6-(2,5-difluoro-4-methoxyphenyl) pyridin-3-yl)piperidin-3-yl)-2,2-difluoroethan-1-ol D-tartaric acid salt was stored for six months at a temperature of 40° C.±2° C. where the relative humidity was 75%±5%. A sample of the crystalline (S)-1-((R)-3-amino-1-(4-((6-amino-9H-purin-9-yl)methyl)-6-(2,5-difluoro-4-methoxyphenyl) pyridin-3-yl)piperidin-3-yl)-2,2-difluoroethan-1-ol D-tartaric acid salt was analyzed at the following time points in the experiment: 0 days (i.e., at the start of the experiment), 1 month, 3 months, and 6 months. The following parameters were evaluated at each time point: physical appearance, water content by coulometric Karl Fischer (CKF) determination, purity by ultra-performance liquid chromatography (UPLC), and total amount of related substances. XRPD analysis was performed on a compound sample at time points 0 days and at 6 months.

The nature of series [7]: Analysis of aqueous solubility (water and fasted state simulated intestinal fluid). The following applies: 37° C.; for solubility at 24 h: thermodynamic from solid, read-out: Test Compound Solubility. Here is the method:
Solubility of test compounds in two different liquids was evaluated: (a) water and (b) fasted state simulated intestinal fluid. Test compounds analyzed were: • crystalline (S)-1-((R)-3-amino-1-(4-((6-amino-9H-purin-9-yl)methyl)-6-(2,5-difluoro-4-methoxyphenyl) pyridin-3-yl)piperidin-3-yl)-2,2-difluoroethan-1-ol D-tartaric acid salt, as set forth in Example 4 (hereinafter “Compound A”); • (S)-1-((R)-3-amino-1-(4-((6-amino-9H-purin-9-yl)methyl)-6-(2,5-difluoro-4-methoxyphenyl) pyridin-3-yl)piperidin-3-yl)-2,2-difluoroethan-1-ol fumaric acid salt (hereinafter “Compound B”); • (S)-1-((R)-3-amino-1-(4-((6-amino-9H-purin-9-yl)methyl)-6-(2,5-difluoro-4-methoxyphenyl) pyridin-3-yl)piperidin-3-yl)-2,2-difluoroethan-1-ol free base (hereinafter “Compound C”).
An aliquot of test compound was placed in the liquid at a temperature of 37° C., and then after 24 hours the concentration of dissolved test compound was determined. pH of the solution at 24 hours was also measured.

Series [8] in a line: Salt form observations: hydrate formation and hygroscopicity.
[9] abbreviates: fassif, fasted state simulated intestinal fluid.
[10] abbreviates: fasted state simulated intestinal fluid.

Consider `COc1cc(F)c(-c2cc(Cn3cnc4c(N)ncnc43)c(N3CCC[C@](N)([C@H](O)C(F)F)C3)cn2)cc1F.O=C(O)C(O)C(O)C(=O)O` [Compound A, (S)-1-((R)-3-amino-1-(4-((6-amino-9H-purin-9-yl)methyl)-6-(2,5-difluoro-4-methoxyphenyl)pyridin-3-yl)piperidin-3-yl)-2,2-difluoroethan-1-ol D-tartaric acid salt], for which, in series [1], the “increase in weight in dynamic vapor sorption” value came to 4.858%. Also, the “water content by Karl Fischer (KF) titration” value in series [2] is on record as 1.22 wt %. Besides, the solubility (in general, the concentration that dissolves in the medium under given conditions) at 30 min in series [3] (after 30 minutes) is over 2000 µg/mL. In addition, the results for the solubility at 24 h in series [3] (after 24 hours), in series [7] (setting [9]) and in series [7] (water) were over 2000 µg/mL, 1600 µg/mL and 2400 µg/mL, respectively. Also, in series [4] (after six days, 75% relative humidity, 40° C.), the “XRPD of recovered salt” value is “no change of the crystalline form”. Besides, the “purity by HPLC” value stood at 99.45 area percent in series [4] (after the study: six days, 75% relative humidity, 40° C.) and 99.53 area percent in series [4] (before the study). Besides, the “API Purity by UPLC” value in series [5] (1 month) is given as 99.9 % area in LC trace; in series [5] (3 months), 100.0 % area in LC trace; in series [5] (6 months) it was 100.0 % area in LC trace; in series [5] (9 months) it was 100.0 % area in LC trace; in series [5] (12 months), 100.0 % area in LC trace; in series [5] (day 0), 100.0 % area in LC trace. Moreover, the “API Purity by UPLC” value in series [6] (1 month), in series [6] (3 months), in series [6] (6 months) and in series [6] (day 0) was 100.0 % area in LC trace throughout. Moreover, the “Physical Appearance” value in series [5] (1 month) was “white”; in series [5] (3 months), “white”; in series [5] (6 months), “white”; in series [5] (9 months) it was “white”; in series [5] (12 months) it was “white”; in series [5] (day 0) it was “white wolid”. In addition, the “Physical Appearance” value in series [6] (1 month), in series [6] (3 months), in series [6] (6 months) and in series [6] (day 0) was “white wolid” each time. For the same molecule, the “Total Amount of Related Substances by UPLC” value is reported as 0.05 % w/w in series [5] (1 month); 0.05 % w/w in series [5] (3 months); under 0.05 % w/w in series [5] (6 months); under 0.05 % w/w in series [5] (9 months); 0.05 % w/w in series [5] (12 months); under 0.05 % w/w in series [5] (day 0). The “Total Amount of Related Substances by UPLC” value is listed as 0.05 % w/w in series [6] (1 month), 0.05 % w/w in series [6] (3 months), under 0.05 % w/w in series [6] (6 months) and under 0.05 % w/w in series [6] (day 0). The “Water Content by CKF” value came out at 0.3 % w/w in series [5] (1 month); 0.4 % w/w in series [5] (3 months); 0.3 % w/w in series [5] (6 months); 0.2 % w/w in series [5] (9 months); 0.3 % w/w in series [5] (12 months); 0.2 % w/w in series [5] (day 0). Moreover, the “Water Content by CKF” value in series [6] (1 month) came out at 0.4 % w/w; in series [6] (3 months) it was 0.4 % w/w; in series [6] (6 months), 0.4 % w/w; in series [6] (day 0) it was 0.2 % w/w. The “XRPD spectrum after storage versus day 0” value in series [5] (stored for 12 months) and in series [6] (stored for 6 months) was “matched the XRPD spectrum obtained on said compound at the beginning of the stability study” in each case. The “pH of Liquid Medium at 24 Hours” value is 5.71 in series [7] (setting [10]) and 3.59 in series [7] (water). The “hydrate formation / anhydrous form” value in series [8] is “could be obtained in anhydrous form”. Besides, in series [8] (long-duration stability studies), the hygroscopicity entry is “low hygroscopicity”.

For the molecule `COc1cc(F)c(-c2cc(Cn3cnc4c(N)ncnc43)c(N3CCC[C@](N)([C@H](O)C(F)F)C3)cn2)cc1F.O=C(O)/C=C/C(=O)O` [Compound B, (S)-1-((R)-3-amino-1-(4-((6-amino-9H-purin-9-yl)methyl)-6-(2,5-difluoro-4-methoxyphenyl)pyridin-3-yl)piperidin-3-yl)-2,2-difluoroethan-1-ol fumaric acid salt], the solubility at 24 h in series [7] (setting [9]) is 506 µg/mL; in series [7] (water) it was 488 µg/mL. The “pH of Liquid Medium at 24 Hours” value is 6.06 in series [7] (setting [10]) and 4.03 in series [7] (water). Also, the “hydrate formation / anhydrous form” value in series [8] is “observed to form hydrates”.

Turning to `COc1cc(F)c(-c2cc(Cn3cnc4c(N)ncnc43)c(N3CCC[C@](N)([C@H](O)C(F)F)C3)cn2)cc1F` [Compound C, (S)-1-((R)-3-amino-1-(4-((6-amino-9H-purin-9-yl)methyl)-6-(2,5-difluoro-4-methoxyphenyl)pyridin-3-yl)piperidin-3-yl)-2,2-difluoroethan-1-ol free base], the figures for the solubility at 24 h in series [7] (setting [9]) and in series [7] (water) were 298 µg/mL (≈ 545 µM) and 0.2 µg/mL (≈ 0.366 µM), respectively. In addition, the “pH of Liquid Medium at 24 Hours” value is recorded as 6.61 in series [7] (setting [10]) and 6.92 in series [7] (water).

`COc1cc(F)c(-c2cc(Cn3cnc4c(N)ncnc43)c(N3CCC[C@](N)([C@H](O)C(F)F)C3)cn2)cc1F.Cl` [hydrochloric acid salt]: in series [8], the “hydrate formation / anhydrous form” value is “observed to form hydrates”.
